Values quoted from earlier work, collected in patent publication US20130035357A1, “Compositions and Methods for Preventing Joint Destruction in Osteoarthritis” (TRUSTEES OF DARTMOUTH COLLEGE, priority 2010, published 2013).

Tests used:
[1] = system: retinoid acid receptors (RARs; e.g., RARα, RARβ, and RARγ)
[2] = system: RXRα, RXRβ, and RXRγ receptors
[3] = system: IL-1β-stimulated SW-1353 cells
[4] = human chondrocytic cells in vitro
[5] = in vitro, by decreasing the transcription rate of the gene

Compound	activity to bind retinoid acid receptors and to transactivate the related RAR genes [1]	production of mRNA and protein for MMP-1 (MMP-1; [4])	inhibition of proinflammatory cytokine-induced upregulation of MMP-1 (MMP-1; [5])	potency as an RXR agonist relative to bexarotene ([2]; compared with bexarotene)	potency as an agonist across RXRα, RXRβ, and RXRγ receptors ([2]; comparison between the three RXR subtypes)	breakdown of collagen by the cells [3, 4]	ability of IL-1β-stimulated SW-1353 cells to degrade collagen matrix ([3]; in vitro)	production of mRNA and protein for MMP-13 (MMP-13; [4])	inhibition of proinflammatory cytokine-induced upregulation of MMP-13 (MMP-13; [5])
C=C(c1ccc(C(=O)O)cc1)c1cc2c(cc1C)C(C)(C)CCC2(C)C [Bexarotene, bexarotene]	negligible activity	–	–	–	–	–	–	–	–
Cc1cc2c(cc1C1(c3ccc(C(=O)O)cn3)CC1)C(C)(C)CCC2(C)C [LG268]	–	inhibit	inhibit	almost an order of magnitude more potent than bexarotene	equal potency	prevented breakdown of collagen	blunt	inhibit	inhibit
